# Tested on: partial thickness wounds
# Experiment: Topically applied bacitracin zinc 3% to 9%, healing of partial thickness wounds (Example III)
# Assay type: in vivo, white Yorkshire pigs
# Description: To test the effect of bacitracin zinc on epidermal resurfacing, approximately 60 rectangular wounds measuring 7 mm wide, 10 mm long, and 0.5 mm deep were made in each of eighteen white Yorkshire pigs in the paravertebral and thoracic areas with a Castroviejo keratome. The electrokeratome was fitted with a razor blade modified so that the cutting edge was reduced to 7 mm. The wounds were separated from one another by at least 15 mm of normal skin. The bacitracin zinc was applied in impregnated foam shortly (within 5 minutes) after wounding on day 0 and once daily thereafter for 7 days. In order to rule out the possibility that wounds made in different anatomical regions heal at different rates the regions used for each treatment group varied for each animal. Two days after wounding and each day thereafter some of the wounds with surrounding normal skin were excised from each treatment group. The excisions were made with a Castroviejo keratome fitted with a 22 mm blade, set to cut at a depth of 0.7 mm. After incubating the specimens in 2N sodium bromide at 37° C. for three hours, the epidermis was separated from the dermis and the epidermal sheet (22 sq mm) was assessed for re-epithelialization as previously described. Briefly, this method is a macroscopic examination of the separated epidermis for defects. Defects are visualized as holes in the separated epidermal sheet or as a lack of epidermal continuum in the area that contain the wound. The wound is considered re-epithelialized if there are no defects in the epidermis and not re-epithelialized if there are one or more defects. To more accurately assess the effective range of bacitracin concentrations,bacitracin zinc containing ointments were prepared with concentrations ranging from 3% to 9%. The methodology employed was substantially the same as in Example I.
substance,measurement,setting,value
bacitracin zinc,% of wounds healed,"3.0% bacitracin zinc, day 2 after wounding",0%
same,% of wounds healed,"3.0% bacitracin zinc, day 3 after wounding",0%
same,% of wounds healed,"3.0% bacitracin zinc, day 4 after wounding",33%
same,% of wounds healed,"3.0% bacitracin zinc, day 5 after wounding",55%
same,% of wounds healed,"3.0% bacitracin zinc, day 6 after wounding",90%
same,% of wounds healed,"3.0% bacitracin zinc, day 7 after wounding",100%
same,% of wounds healed,"4.0% bacitracin zinc, day 2 after wounding",0%
same,% of wounds healed,"4.0% bacitracin zinc, day 3 after wounding",5%
same,% of wounds healed,"4.0% bacitracin zinc, day 4 after wounding",45%
same,% of wounds healed,"4.0% bacitracin zinc, day 5 after wounding",60%
same,% of wounds healed,"4.0% bacitracin zinc, day 6 after wounding",96%
same,% of wounds healed,"4.0% bacitracin zinc, day 7 after wounding",100%
same,% of wounds healed,"5.0% bacitracin zinc, day 2 after wounding",0%
same,% of wounds healed,"5.0% bacitracin zinc, day 3 after wounding",9%
same,% of wounds healed,"5.0% bacitracin zinc, day 4 after wounding",48%
same,% of wounds healed,"5.0% bacitracin zinc, day 5 after wounding",71%
same,% of wounds healed,"5.0% bacitracin zinc, day 6 after wounding",95%
same,% of wounds healed,"5.0% bacitracin zinc, day 7 after wounding",100%
same,% of wounds healed,"5.5% bacitracin zinc, day 2 after wounding",0%
same,% of wounds healed,"5.5% bacitracin zinc, day 3 after wounding",15%
same,% of wounds healed,"5.5% bacitracin zinc, day 4 after wounding",55%
same,% of wounds healed,"5.5% bacitracin zinc, day 5 after wounding",75%
same,% of wounds healed,"5.5% bacitracin zinc, day 6 after wounding",98%
same,% of wounds healed,"5.5% bacitracin zinc, day 7 after wounding",100%
same,% of wounds healed,"6.0% bacitracin zinc, day 2 after wounding",0%
same,% of wounds healed,"6.0% bacitracin zinc, day 3 after wounding",20%
same,% of wounds healed,"6.0% bacitracin zinc, day 4 after wounding",59%
same,% of wounds healed,"6.0% bacitracin zinc, day 5 after wounding",78%
same,% of wounds healed,"6.0% bacitracin zinc, day 6 after wounding",98%
same,% of wounds healed,"6.0% bacitracin zinc, day 7 after wounding",100%
same,% of wounds healed,"6.5% bacitracin zinc, day 2 after wounding",0%
same,% of wounds healed,"6.5% bacitracin zinc, day 3 after wounding",33%
same,% of wounds healed,"6.5% bacitracin zinc, day 4 after wounding",65%
same,% of wounds healed,"6.5% bacitracin zinc, day 5 after wounding",88%
same,% of wounds healed,"6.5% bacitracin zinc, day 6 after wounding",100%
same,% of wounds healed,"6.5% bacitracin zinc, day 7 after wounding",100%
same,% of wounds healed,"7.0% bacitracin zinc, day 2 after wounding",0%
same,% of wounds healed,"7.0% bacitracin zinc, day 3 after wounding",40%
same,% of wounds healed,"7.0% bacitracin zinc, day 4 after wounding",70%
same,% of wounds healed,"7.0% bacitracin zinc, day 5 after wounding",96%
same,% of wounds healed,"7.0% bacitracin zinc, day 6 after wounding",100%
same,% of wounds healed,"7.0% bacitracin zinc, day 7 after wounding",100%
same,% of wounds healed,"7.5% bacitracin zinc, day 2 after wounding",0%
same,% of wounds healed,"7.5% bacitracin zinc, day 3 after wounding",38%
same,% of wounds healed,"7.5% bacitracin zinc, day 4 after wounding",68%
same,% of wounds healed,"7.5% bacitracin zinc, day 5 after wounding",92%
same,% of wounds healed,"7.5% bacitracin zinc, day 6 after wounding",98%
same,% of wounds healed,"7.5% bacitracin zinc, day 7 after wounding",100%
same,% of wounds healed,"8.0% bacitracin zinc, day 2 after wounding",0%
same,% of wounds healed,"8.0% bacitracin zinc, day 3 after wounding",12%
same,% of wounds healed,"8.0% bacitracin zinc, day 4 after wounding",59%
same,% of wounds healed,"8.0% bacitracin zinc, day 5 after wounding",75%
same,% of wounds healed,"8.0% bacitracin zinc, day 6 after wounding",90%
same,% of wounds healed,"8.0% bacitracin zinc, day 7 after wounding",100%
same,% of wounds healed,"9.0% bacitracin zinc, day 2 after wounding",0%
same,% of wounds healed,"9.0% bacitracin zinc, day 3 after wounding",4%
same,% of wounds healed,"9.0% bacitracin zinc, day 4 after wounding",33%
same,% of wounds healed,"9.0% bacitracin zinc, day 5 after wounding",66%
same,% of wounds healed,"9.0% bacitracin zinc, day 6 after wounding",90%
same,% of wounds healed,"9.0% bacitracin zinc, day 7 after wounding",100%
same,promoting epidermal resurfacing,applied in an ointment base at concentrations of about 5% to 8%,effective agent for promoting epidermal resurfacing
same,enhancement of healing,concentration of 4%,some enhancement of healing is observed
same,enhancement of healing,"higher concentrations, particularly in the range of 6.5%-7.5%",Preferred healing is observed
